Measurements taken from patent publication US20240240209A1, “SYNTHESIS OF ENANTIOPURE CIS-A-IRONE FROM A RENEWABLE CARBON SOURCE” (Agency for Science, Technology and Research, priority 2021, published 2024).
Residue numbers refer to the chain shown, from its start.

Columns and labels:
[1] = target: T1, Streptomyces blastmyceticus O-methyltransferase TleD (pMT1, SEQ ID No. 3) variant pMT7, Y200F S182E L273V L180A A202L Y65F, SEQ ID No. 9 (Streptomyces blastmyceticus, UniProt A0A077K7L1, A202L/L180A/L273V/S182E/Y200F/Y65F); experiment: Steady-state kinetics of purified pMT7; type: biochemical; details: pH 7, 28° C., 2 h
T1 sequence (A0A077K7L1 1-289 Y65F/L180A/S182E/Y200F/A202L/L273V): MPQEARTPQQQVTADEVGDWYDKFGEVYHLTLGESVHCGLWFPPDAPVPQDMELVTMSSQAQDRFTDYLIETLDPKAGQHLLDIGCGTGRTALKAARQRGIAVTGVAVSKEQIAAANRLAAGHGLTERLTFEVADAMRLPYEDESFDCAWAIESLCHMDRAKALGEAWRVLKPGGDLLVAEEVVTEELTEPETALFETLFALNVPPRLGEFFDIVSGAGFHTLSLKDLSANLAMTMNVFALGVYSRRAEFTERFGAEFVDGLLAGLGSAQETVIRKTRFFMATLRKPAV
Procedure: (§1) His-tag protein purification was carried out according to the manufacturer's instruction (Cube Biotech). For each enzyme, it was overexpressed in 200 ml of ZYM autoinduction media with 5 mM lactose at 20° C. for 36 hrs. Following that, cells were pelleted and resuspended with 10 ml of His-binding buffer (50 mM Tris, pH 8, 0.5M NaCl and 20 mM imidazole) supplemented with 1 mg/ml lysozyme and 3 U/ml of benzonase nuclease (Merck) and treated for 1 hour (hr) at 20° C., 300 rpm. The cells were further lysed by 2 cycles of freeze-thawing with freezing at −80° C. for 4 hrs and thawing at room temperature for 45 mins. The supernatant (soluble fraction) was obtained by centrifuging at 15,000 g for 30 mins at 4° C. […] Protein quantification and purity were determined through micro BCA assay (Pierce) and running SDS-PAGE, respectively.
(§2) To determine the purified enzyme kinetics and in vivo production, the reaction mixture was extracted with 0.5× or 1× volume of ethyl acetate and the organic phase was diluted appropriately before subjected to GCMS analysis. The samples were analyzed on an Agilent Intuvo 9000 GC system equipped with Agilent DB-WAX Ultra Inert Intuvo GC column (30 m×250 μm×0.25 μm) and Agilent 5977B mass spectrometry with high efficiency source. […] The concentration of psi-ionone and irone were calculated by interpolating with a standard curve prepared by synthetic standards.

pMT7 = pMT7 (Streptomyces blastmyceticus, UniProt A0A077K7L1, A202L/L180A/L273V/S182E/Y200F/Y65F); experiment: biochemical
Chain of pMT7 (A0A077K7L1 entry or part of it Y65F/L180A/S182E/Y200F/A202L/L273V): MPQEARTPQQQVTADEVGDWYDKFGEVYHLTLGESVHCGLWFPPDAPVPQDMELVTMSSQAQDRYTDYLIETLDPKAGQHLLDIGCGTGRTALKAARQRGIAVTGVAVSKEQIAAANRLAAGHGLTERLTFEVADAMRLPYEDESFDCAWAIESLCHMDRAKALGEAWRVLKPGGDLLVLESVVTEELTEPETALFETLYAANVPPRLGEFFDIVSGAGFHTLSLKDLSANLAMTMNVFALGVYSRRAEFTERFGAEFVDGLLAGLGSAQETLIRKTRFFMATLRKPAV
Procedure: (§3) It was calculated by dividing the pMT7 activity where no additive was added. […] It was calculated by dividing the pMT7 and pMT10 activity where no additive was added. […] All the purified enzyme reactions were done in triplicates. […] The bar chart represents the mean value of replicated reactions.
The steady-state kinetic parameters of pMT7 were determined (Table 3). […] Since pMT7 is an hexamer in solution^10, its oligomeric state before and after the reaction was examined.
(§4) Following enzyme purification, a 100 μl enzymatic reaction was setup with a final concentration of 0.5 mg/ml of enzyme, 40 mg/L psi-ionone, 0.2 mM SAM, 100 mM Tris (pH 7), 10 mM MgCl2 and 15 mM NaCl. The reaction was done in 0.2 ml PCR strips and incubated at 28° C., 1200 rpm overnight. Alongside, a control without enzyme (with 40% glycerol only) was included as negative control. The next day, cis-α-irone was extracted with 100 μl of ethyl acetate and 50 μl organic layer taken for GCMS analysis. For enzyme characterization, similar enzymatic reaction was performed, with varying concentration of psi-ionone (2-40 mg/L) and SAM (10-100 μM), and the reaction was stopped after 2 h incubation at 28° C. to ensure the enzymatic conversion is still within linear range.

[2] = target: T2, Streptomyces blastmyceticus O-methyltransferase TleD (pMT1, SEQ ID No. 3) variant pMT10, Y200F S182E L273V L180A A202L Y65F C156A T91P, SEQ ID No. 12 (Streptomyces blastmyceticus, UniProt A0A077K7L1, A202L/C156A/L180A/L273V/S182E/T91P/Y200F/Y65F); experiment: Steady-state kinetics of purified pMT10; type: biochemical; details: pH 7, 28° C., 2 h, psi-ionone 2-40 mg/L, SAM 10-100 μM
T2 sequence (A0A077K7L1 1-289 Y65F/T91P/C156A/L180A/S182E/Y200F/A202L/L273V): T1 sequence (A0A077K7L1 1-289 Y65F/L180A/S182E/Y200F/A202L/L273V) with T91P, C156A
Procedure: as §1, §2

pMT6 = experiment: Methylation and cyclization of structurally similar terpenoids by E. coli cell lysate overexpressing pMT6; type: biochemical, Streptomyces blastmyceticus; details: GFP lysate as control
Procedure: Using E. coli cell lysate overexpressing pMT6, a range of structurally similar terpenoids for methylation and cyclization reaction was assayed (FIG. 21a). E. coli lysate overexpressing green fluorescence protein was used as a control. […] Citral was not stable and was reduced to geraniol in the presence of cell lysate. […] Compound identity was searched against the National Institute of Standards and Technology (NIST) library. […] Lastly, for the monoterpene ketone, geranylacetone, with saturated C7-C8 bond, multiple methylated products were detected based on the molecular ion.

pMT10 = pMT10 (Streptomyces blastmyceticus, UniProt A0A077K7L1, A202L/C156A/L180A/L273V/S182E/T91P/Y200F/Y65F); experiment: biochemical
Chain of pMT10 (A0A077K7L1 entry or part of it Y65F/T91P/C156A/L180A/S182E/Y200F/A202L/L273V): as the sequence (A0A077K7L1 entry or part of it Y65F/L180A/S182E/Y200F/A202L/L273V) above
Procedure: as §3, §4

[3] = SAH analogues (0-200 μM) or excess α-irone supplemented

SMILES | effect on pMT7 methyltransferase activity (pMT7; [3]) | methylated products in pMT6 reaction (SPME-GCMS) (pMT6) | further results
CC(=O)/C=C/C=C(\C)CCC=C(C)C [psi-ionone] |  |  | kcat ([1]; Table 3): 4.4 ± 0.2 ×10^3 h^−1
CC(=O)/C=C/C1C(C)=CCC(C)C1(C)C (stereo not drawn) [α-irone] | did not alter the methyltransferase activity significantly |  | 
C[S+](CC[C@H](N)C(=O)[O-])C[C@H]1O[C@@H](n2cnc3c(N)ncnc32)[C@H](O)[C@@H]1O (stereo partly drawn) [SAM, S-adenosylmethionine] |  |  | Km ([1]; psi-ionone 2-40 mg/L, SAM 10-100 μM): 54.6 µM; Km [2]: 30.5 ± 1.3 µM
CC(C)=CCC/C(C)=C/CO [geraniol] |  | detected methylated products | 
Nc1ncnc2nc[nH]c12 [adenine] | did not alter the methyltransferase activity significantly |  | 
N[C@@H](CCS)C(=O)O [homocysteine] | did not alter the methyltransferase activity significantly |  | 
CC(=O)CC/C=C(\C)CCC=C(C)C [geranylacetone] |  | detected methylated products | 
Nc1ncnc2c1ncn2[C@@H]1O[C@H](CO)[C@@H](O)[C@H]1O [adenosine] | did not alter the methyltransferase activity significantly |  | 
C=CC(C)(O)CCC=C(C)C (stereo not drawn) [linalool] |  | detected methylated products | 
Nc1ncnc2c1ncn2[C@@H]1O[C@H](CSCC[C@H](N)C(=O)O)[C@@H](O)[C@H]1O [SAH, S-adenosyl-L-homocysteine] |  |  | IC50 (pMT7): 4.9 µM; effect on pMT7 activity (pMT7; 2 μM SAH supplemented): led to a reduction in pMT7 activity; effect on pMT7 methyltransferase activity (pMT7; 20 µM SAH supplemented): nearly abolished the methyltransferase activity; IC50 (pMT10): 3.1 µM
CC(C)=CCCC(C)=CC=O [Citral] |  | not stable | 
